Values quoted from earlier work in patent US4801444A, “Medicinal preparation for individual prevention of venereal diseases and treatment of urogenital trichomoniasis” (Poltavsky Meditsinsky Stomatologichesky Institut, priority 1988, dated 1989).
Where two headings read alike, the source gives them in different places.

How the values were obtained:
[1] = tested on: urogenital trichomoniasis
venereal diseases [2] = details: 0.05-0.1 percent solution
venereal diseases [3] = details: 0.05-0.1 percent solution; remark: listed apart in the source
[4] = 0.05-0.1 percent solution, clinical application
trichomonads = details: imidazole medicines, clinical use

O=C(N[C@H](CO)[C@H](O)c1ccc([N+](=O)[O-])cc1)C(Cl)Cl [laevomycetin]
efficacy in topical treatment of urogenital trichomoniasis ([1]; topical (external)): insufficiently efficacious

O=S(=O)([O-])[O-].[Zn+2] [zinc sulphate]
efficacy in topical treatment of urogenital trichomoniasis ([1]; topical (external)): insufficiently efficacious

OB(O)O [boric acid]
efficacy in topical treatment of urogenital trichomoniasis ([1]; in vivo): insufficiently efficacious

[H]/N=C(\N/C(=N/[H])NCCCCCCNC(=N)NC(=N)Nc1ccc(Cl)cc1)Nc1ccc(Cl)cc1 [Chlorhexidine]
bactericidal activity in vitro (venereal diseases [2]): adequate bactericidal activity
bactericidal activity in tests on animals (venereal diseases [3]): adequate bactericidal activity
effect upon skin and genital mucosa in man [4]: irritating and withering effect upon the skin and genital mucosa

O=[N+]([O-])[O-].[Ag+] [lapis]
efficacy in topical treatment of urogenital trichomoniasis ([1]; topical (external)): insufficiently efficacious

Cc1ncc([N+](=O)[O-])n1CCO [Metronidazole]
relapsing of a specific process (trichomonads): up to 8.4% of all cases

CCS(=O)(=O)CCn1c([N+](=O)[O-])cnc1C [Tinidazole]
relapsing of a specific process (trichomonads): up to 8.4% of all cases

O=S(=O)([O-])[O-].[Cu+2] [copper sulphate]
efficacy in topical treatment of urogenital trichomoniasis ([1]; topical (external)): insufficiently efficacious

CC(=O)Nc1cc([As](=O)(O)O)ccc1O [Acetarsol]
efficacy in topical treatment of urogenital trichomoniasis ([1]; topical (external)): insufficiently efficacious
